SMILES strings stand for the structures. Active and inactive are the calls of the source. The rule behind the calls is not given here.

What all share (type): functional, cell-based
The test system of one assay is U-937. Description: Cytotoxicity in UV-irradiated human U937 cells exposed to photosensitizer for 2 hrs before irradiation for 20 mins by WST-1 assay. To be noted: for IC50: U-937, light or radiation study.
For a further assay, the system named is HCT-116. Put plainly: Cytotoxicity in UV-irradiated human HCT116 cells exposed to photosensitizer for 2 hrs before irradiation for 20 mins by WST-1 assay.
Another assay concerns HT-29. Description: Cytotoxicity in UV-irradiated human HT-29 cells exposed to photosensitizer for 2 hrs before irradiation for 20 mins by WST-1 assay.
The subject of the next assay is KB. Put plainly: Cytotoxicity in UV-irradiated human KB cells exposed to photosensitizer for 2 hrs before irradiation for 20 mins by WST-1 assay.

As to `O=[N+]([O-])c1ccc(SN2Cc3ccccc3Cc3ccccc32)cc1`, in the assay on U-937, the Activity result is “Dose-dependent effect” and the IC50 came out at 5.7 µM.
On to `O=[N+]([O-])c1ccc(SN(c2ccccc2)c2ccccc2)cc1`, for which, in the assay on U-937, the Activity result was “Dose-dependent effect” and the IC50 is 6.8 µM.
For `O=[N+]([O-])c1ccc(SN2c3ccccc3Sc3ccccc32)cc1`, in the assay with U-937, the Activity entry is “Dose-dependent effect” and the IC50 was determined as 12.4 µM.
The corresponding values for `O=[N+]([O-])c1ccc(SN2c3ccccc3N=Nc3ccccc32)cc1` are “Dose-dependent effect” and over 20 µM.
In the case of `CC1=Nc2ccc(Cl)cc2N(Sc2ccc([N+](=O)[O-])cc2)c2ccccc21`, in the assay with U-937, the Activity result was “Dose-dependent effect” and the IC50 was 2 µM.
`O=[N+]([O-])c1ccc(SN2c3ccccc3Cc3ccccc32)cc1`: the Activity entry in the assay with U-937 is “Dose-dependent effect”. Also, the IC50 in the assay on U-937 was found to be 1.3 µM. The outcome in the assay with HCT-116, in the assay with HT-29 and with KB was Active.
For the molecule `O=[N+]([O-])c1ccc(SN2Cc3ccccc3Oc3ccccc32)cc1`, in the assay with U-937, the Activity entry was “Dose-dependent effect” and the IC50 was found to be 17.2 µM.
The matching figures for `O=[N+]([O-])c1ccc(SN2CCc3ccccc3-c3ccccc32)cc1`: “Dose-dependent effect” and 6 µM.
On to `O=[N+]([O-])c1ccc(SN2Cc3ccccc3-c3ccccc32)cc1`, for which, in the assay with U-937, the Activity result was “Dose-dependent effect” and the IC50 is 7.3 µM.
As to `O=[N+]([O-])c1ccc(SN2c3ccccc3Oc3ccccc32)cc1`, in the assay with U-937, the Activity entry was “Dose-dependent effect” and the IC50 was over 20 µM.
Take `O=[N+]([O-])c1ccc(SN2c3ccccc3C=Cc3ccccc32)cc1`: the Activity entry in the assay with U-937 was “Dose-dependent effect”. Besides, the IC50 in the assay with U-937 is 1.2 µM. For the same molecule, the result in the assay on HCT-116, in the assay with HT-29 and with KB was Active.
Turning to `O=[N+]([O-])c1ccc(Sn2c3ccccc3c3ccccc32)cc1`, in the assay with U-937, the Activity result is “Dose-dependent effect” and the IC50 was over 20 µM.

Values taken from ChEMBL document CHEMBL2021902, “Type 1 phototherapeutic agents, part I: preparation and cancer cell viability studies of novel photolabile sulfenamides” (ACS Med Chem Lett, 2011).
